Measurements taken from ChEMBL document CHEMBL6078680, “Improving the Stability and Anti-Infective Activity of Sea Turtle AMPs Using Multiple Structural Modification Strategies” (J Med Chem, 2024).
Active and inactive are the calls of the source. No cut-off for these calls is given here. Positions of bridges follow the written chain, without caps; N, C: chain ends. Residues, ends and D or L forms follow the SMILES beside them.

Experiments:
Peritoneal macrophage [1] = assay: Antiinflammatory activity in mouse Peritoneal macrophage cells assessed as inhibition of LPS-induced IL-6 production at 20 microg/ml incubated for 6 hrs by ELISA analysis; format: functional, cell-based; conditions: dose 20.0 µg/ml
Staphylococcus aureus = assay: Antimicrobial activity against Staphylococcus aureus CMCC 26003 at 5 times MIC measured at 180 mins; format: functional, organism-based
HaCaT = assay: Cytotoxicity against human HaCaT cells assessed as survival rate at 100 microg/ml; format: functional; conditions: read-out: Survival
[2] = Hemolytic activity at human Erythrocyte assessed as hemolysis at 100 microg/ml; format: toxicity, cell-based; conditions: erythrocytes, at 100 µg/mL, read-out: Activity
Peritoneal macrophage [3] = assay: Antiinflammatory activity in mouse Peritoneal macrophage cells assessed as inhibition of LPS-induced TNF-alpha production at 20 microg/ml incubated for 6 hrs by ELISA analysis; format: functional, cell-based; conditions: dose 20.0 µg/ml
Peritoneal macrophage [4] = assay: Cytotoxicity against mouse Peritoneal macrophage cells assessed as survival rate at 100 microg/ml; format: functional; conditions: read-out: Survival
Escherichia coli = assay: Drug resistance, ratio of MIC for Escherichia coli ATCC 25922 after 40 passages to MIC for Escherichia coli ATCC 25922 during first exposure; format: functional
4T1 = assay: Cytotoxicity against mouse 4T1 cells assessed as survival rate at 100 microg/ml; format: functional; conditions: read-out: Survival
Peritoneal macrophage [5] = assay: Cytotoxicity against mouse Peritoneal macrophage cells assessed as decrease in cell number at 20 microg/ml; format: functional, cell-based; conditions: dose 20.0 µg/ml
B16-F10 = assay: Cytotoxicity against mouse B16-F10 cells assessed as survival rate at 100 microg/ml; format: functional; conditions: read-out: Survival

| Molecule | Activity (Peritoneal macrophage [1]) | Activity (Staphylococcus aureus) | viability at 100 µg/mL (HaCaT) [%] | hemolysis at 100 microg/ml [2] [%] | Activity (Peritoneal macrophage [3]) | viability at 100 µg/mL (Peritoneal macrophage [4]) [%] | Ratio (Escherichia coli) | viability at 100 µg/mL (4T1) [%] | Activity (Peritoneal macrophage [5]) | viability at 100 µg/mL (B16-F10) [%] |
| --- | --- | --- | --- | --- | --- | --- | --- | --- | --- | --- |
| CC[C@H](C)[C@H](NC(=O)[C@H](CCCNC(=N)N)NC(=O)[C@H](CO)NC(=O)[C@H](Cc1c[nH]cn1)NC(=O)[C@H](CCCNC(=N)N)NC(=O)[C@H](CC(C)C)NC(=O)[C@@H](NC(=O)[C@@H]1CSSC[C@H](NC(=O)[C@@H](NC(=O)[C@H](CCCCN)NC(=O)[C@H](CCCCN)NC(=O)[C@@H](N)Cc2ccccc2)C(C)C)C(=O)N[C@@H](CCCNC(=N)N)C(=O)N[C@@H](CCCCN)C(=O)N[C@@H](CCC(N)=O)C(=O)N[C@@H](CC(C)C)C(=O)NCC(=O)N[C@@H](CCCNC(=N)N)C(=O)N1)C(C)C)C(=O)N[C@H](C(=O)N[C@H](C(=O)NCC(=O)NCC(=O)N[C@@H](CCCNC(=N)N)C(=O)N[C@@H](CCSC)C(=O)N[C@@H](CCCNC(=N)N)C(=O)N[C@@H](Cc1ccccc1)C(=O)O)C(C)C)[C@@H](C)O (H-FKKVCRKQLGRCVLRHSRITVGGRMRF-OH; disulfide 5-12) | Active | inactive | > 80 | < 5 | Active | > 80 | – | – | – | – |
| C[C@@H](O)[C@H]1C(=O)N2C(C(=O)O)=C(S[C@@H]3CN[C@H](C(=O)N(C)C)C3)[C@H](C)[C@H]12 [MEROPENEM] | – | – | – | – | – | – | 64 | – | – | – |
| H-FGRFFKKVRKQLGRVLRHSRITVGGRMRF-OH | Active | inactive | – | – | Active | – | – | < 40 | Active | – |
| H-RFFKKVRKQLGRVLRHSRITVGGRMRF-OH | Active | inactive | – | – | Active | – | – | < 40 | Active | – |
| H-RRSRFGRFFKKVRKQLG-NH2 | – | inactive | 80 | – | – | 80 | – | < 40 | – | < 40 |
| H-RRSRFGRFFKKVRKQLGRV-NH2 | – | inactive | 80 | – | – | 80 | – | < 40 | – | < 40 |
| H-RRSRFGRFFKKVRKQLGRVLR-NH2 | Active | inactive | 80 | – | Active | 80 | – | < 40 | Active | < 40 |
| H-RRSRFGRFFKKVRKQLGRVLRHS-NH2 | Active | inactive | 80 | – | Active | 80 | – | < 40 | Active | < 40 |
| H-RRSRFGRFFKKVRKQLGRVLRHSRI-NH2 | Active | inactive | 80 | – | Active | 80 | 1 | < 40 | Active | < 40 |
| H-RRSRFGRFFKKVRKQLGRVLRHSRITV-NH2 | Active | inactive | 80 | – | Active | 80 | – | < 40 | Active | < 40 |
| H-RRSRFGRFFKKVRKQLGRVLRHSRITVGG-NH2 | Active | inactive | 80 | – | Active | 80 | – | < 40 | Active | < 40 |
| H-RRSRFGRFFKKVRKQLGRVLRHSRITVGGRM-NH2 | Active | inactive | 80 | – | Active | 80 | – | < 40 | Active | < 40 |
| H-SRFGRFFKKVRKQLGRVLRHSRITVGGRMRF-OH | Active | inactive | – | – | Active | – | – | < 40 | Active | – |
